Results: the supplement of paper PMC10307832

How the values were obtained:
Assay in all cases: relative viability (nuclei count vs DMSO), 5 days (fraction); higher = more cells survive
SGI-1776 + Navitoclax = compound: CN1CCC(CNc2ccc3ncc(-c4cccc(OC(F)(F)F)c4)n3n2)CC1 [SGI-1776] + CC1(C)CCC(c2ccc(Cl)cc2)=C(CN2CCN(c3ccc(C(=O)NS(=O)(=O)c4ccc(N[C@H](CCN5CCOCC5)CSc5ccccc5)c(S(=O)(=O)C(F)(F)F)c4)cc3)CC2)C1 [Navitoclax] (partner 0.5 µM)
In short: (§1)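 One day after seeding in 1536-well plates, lung cancer cell lines were dosed by pin tool. Dosing was either single-drug or a fixed anchor-drug dose plus five library-drug doses (not always all listed) in √10 steps. After 5 days, nuclei were stained in one fix-and-stain step and counted on 4× images, and relative viability is the nuclei count of treated wells over that of vehicle wells, given as the median of duplicate plates.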

[1] = compound: C1COCCN1C2=NC(=NC3=C2OC4=C3C=CC=N4)C5=CC(=CC=C5)NC(=O)C6=CN=C(C=C6)N + CCNC(=O)c1noc(-c2cc(C(C)C)c(O)cc2O)c1-c1ccc(CN2CCOCC2)cc1 [Luminespib] (partner 0.01 µM)
In short: as §1

[2] = compound: C1COCCN1C2=NC(=NC3=C2OC4=C3C=CC=N4)C5=CC(=CC=C5)NC(=O)C6=CN=C(C=C6)N + CS(=O)(=O)CCNCc1ccc(-c2ccc3ncnc(Nc4ccc(OCc5cccc(F)c5)c(Cl)c4)c3c2)o1 [Lapatinib] (partner 2 µM)
In short: as §1

Entinostat + OSI-027 = compound: Nc1ccccc1NC(=O)c1ccc(CNC(=O)OCc2cccnc2)cc1 [Entinostat] + COc1cccc2cc(-c3nc([C@H]4CC[C@H](C(=O)O)CC4)n4ncnc(N)c34)[nH]c12 [OSI-027] (partner 0.5 µM)
In short: as §1

Row | Cell Line | relative viability (SGI-1776 + Navitoclax; first compound 0.08 µM) | relative viability (SGI-1776 + Navitoclax; first compound 0.8 µM) | relative viability (SGI-1776 + Navitoclax; first compound 2.53 µM) | relative viability (SGI-1776 + Navitoclax; first compound 8 µM) | relative viability ([1]; first compound 0.02 µM) | relative viability ([1]; first compound 0.06325 µM) | relative viability ([1]; first compound 0.2 µM) | relative viability ([1]; first compound 0.6325 µM) | relative viability ([1]; first compound 2 µM) | relative viability ([2]; first compound 0.02 µM) | relative viability ([2]; first compound 0.06325 µM) | relative viability ([2]; first compound 0.2 µM) | relative viability ([2]; first compound 0.6325 µM) | relative viability ([2]; first compound 2 µM) | relative viability (Entinostat + OSI-027; first compound 0.02 µM) | relative viability (Entinostat + OSI-027; first compound 0.06325 µM) | relative viability (Entinostat + OSI-027; first compound 0.2 µM) | relative viability (Entinostat + OSI-027; first compound 0.6325 µM) | relative viability (Entinostat + OSI-027; first compound 2 µM)
1 | NCI-H1793 | 0.358 | 0.52 | 0.482 | 0.31 | 0.16 | 0.192 | 0.168 | 0.165 | 0.158 | 0.884 | 0.971 | 0.575 | 0.56 | 0.405 | 0.291 | 0.316 | 0.285 | 0.2 | 0.204
2 | NCI-H1734 | 0.829 | 0.851 | 0.884 | 0.759 | 0.169 | 0.197 | 0.204 | 0.182 | 0.156 | 1.18 | 1.09 | 0.935 | 0.902 | 0.558 | 0.635 | 0.772 | 0.59 | 0.5 | 0.488
3 | LXF-289 | 0.966 | 0.989 | 0.963 | 0.983 | 0.598 | 0.798 | 0.783 | 0.494 | 0.321 | 0.939 | 0.97 | 0.99 | 0.9 | 0.696 | 0.795 | 0.765 | 0.894 | 0.582 | 0.395
4 | PC-3 [JPC-3] | 0.704 | 0.767 | 0.862 | 0.699 | 0.704 | 0.675 | 0.754 | 0.675 | 0.613 | 0.444 | 0.459 | 0.438 | 0.476 | 0.398 | 0.761 | 0.745 | 0.57 | 0.432 | 0.306
5 | NCI-H2087 | 0.963 | 1.04 | 1.04 | 0.861 | 0.146 | 0.16 | 0.137 | 0.204 | 0.142 | 1.11 | 1.09 | 1.07 | 0.997 | 0.807 | 0.666 | 0.509 | 0.376 | 0.27 | 0.213
6 | NCI-H2170 | 0.561 | 0.678 | 0.581 | 0.56 | 0.579 | 0.893 | 0.723 | 0.606 | 0.584 | 0.245 | 0.265 | 0.251 | 0.286 | 0.297 | 0.745 | 0.65 | 0.742 | 0.607 | 0.373
7 | NCI-H1395 | 1.08 | 1.41 | 1.13 | 0.836 | 0.666 | 0.555 | 0.789 | 0.658 | 0.482 | 0.782 | 1.13 | 0.91 | 0.983 | 0.831 | 0.716 | 0.764 | 0.583 | 0.647 | 0.505
8 | NCI-H2228 | 0.843 | 0.817 | 0.658 | 0.51 | 0.143 | 0.194 | 0.209 | 0.115 | 0.111 | 1.1 | 1.2 | 0.89 | 1.06 | 0.604 | 0.695 | 0.595 | 0.416 | 0.266 | 0.208
9 | H3255 | 0.525 | 0.46 | 0.543 | 0.193 | 0.79 | 0.851 | 0.689 | 1.03 | 0.9 | 0.241 | 0.238 | 0.23 | 0.238 | 0.293 | 0.589 | 0.582 | 0.503 | 0.309 | 0.232
10 | HCC-15 | 0.707 | 0.728 | 0.599 | 0.475 | 0.33 | 0.251 | 0.292 | 0.234 | 0.242 | 0.865 | 0.883 | 0.811 | 0.818 | 0.511 | 0.669 | 0.617 | 0.583 | 0.347 | 0.239
11 | NCI-H727 | 0.426 | 0.446 | 0.346 | 0.247 | 0.482 | 0.317 | 0.323 | 0.335 | 0.346 | 0.829 | 0.753 | 0.742 | 0.722 | 0.686 | 0.679 | 0.808 | 0.5 | 0.493 | 0.398
12 | NCI-H2023 | 1.04 | 1.04 | 0.998 | 0.979 | 0.793 | 0.38 | 0.477 | 0.507 | 0.245 | 0.759 | 0.798 | 0.618 | 0.565 | 0.471 | 0.287 | 0.29 | 0.264 | 0.12 | 0.0886
13 | HCC-44 | 0.935 | 0.909 | 1.08 | 0.928 | 0.99 | 1.17 | 1.05 | 1.22 | 0.687 | 1.1 | 1.07 | 1.09 | 1.06 | 0.631 | 0.53 | 0.518 | 0.333 | 0.182 | 0.176
14 | COR-L23 | 1.13 | 1.03 | 1.11 | 0.731 | 0.761 | 0.99 | 0.89 | 0.667 | 0.467 | 0.946 | 1.26 | 1.15 | 1.24 | 0.451 | 0.67 | 0.599 | 0.621 | 0.291 | 0.264
15 | EMC-BAC-2 | 1.23 | 1.22 | 1.16 | 1.1 | 1.25 | 1.32 | 1.08 | 1.03 | 0.648 | 0.932 | 0.931 | 0.94 | 0.897 | 0.733 | 0.376 | 0.423 | 0.368 | 0.305 | 0.256
16 | LCLC-97TM1 | 0.533 | 0.528 | 0.314 | 0.355 | 0.787 | 0.908 | 0.739 | 0.826 | 0.566 | – | 1.25 | 1.15 | 0.892 | 0.761 | 0.583 | 0.462 | 0.51 | 0.408 | 0.43
17 | LK-2 | 0.98 | 0.828 | 0.772 | 0.549 | 0.193 | 0.196 | 0.201 | 0.169 | 0.175 | 1.14 | 1.11 | 0.828 | 0.776 | 0.563 | 0.221 | 0.187 | 0.188 | 0.188 | 0.18
